We go through 19 compounds from patent US8729089B2 (Gilead Sciences, Inc., priority 2006, dated 2014).

The subject of data set [1] is HCV replicon in human hepatoma Huh-7 cell line. The data set can be described thus: Anti-HCV replicon assay (EC50, luciferase). The format is cell-based. The note with it: Hepatitis C virus, Huh-7, 72 h. The essentials:
(§1)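 Huh-7 cells carrying an HCV replicon (6000/well) exposed to 3-fold serial compound dilutions for 3 days at 37 °C, final DMSO 0.5% where used. EC50 read as replicon luciferase luminescence after cell lysis; CC50 from CellTiter-Glo luminescence after 10 min at room temperature.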
On the technique in general: Replicon systems follow genome replication, usually without infectious particles.

Data set [2] can be described thus: CC50 assay (CellTiter-Glo) in Huh-7 HCV replicon cells. The format is cell-based, human. The note with it: human, 3 days incubation, CellTiter-Glo readout. The essentials: as §1

Broadly, the EC50 is the concentration giving half of the maximal effect. Read a low EC50 as greater potency. One may read the CC50 as the concentration at which the toxic effect on the cells reaches its halfway point. High values mean lower toxicity to the cells, low ones greater toxicity to the cells. The compound `CCOc1nc(NCc2ccc(S(N)(=O)=O)cc2)nc2ccc(-c3ccc(C(=O)NC(C)(C)CN4CCCC4)cc3)nc12` [Example 142, 4-{[4-Ethoxy-6-(4-(N-(2-(pyrrolidin-1-yl)methyl-2-propyl)-carbamoyl)phenyl)-pyrido[3,2-d]pyrimidin-2-ylamino]-methyl}-benzenesulfonamide] returned a half-maximal effective concentration (EC50) in data set [1] below 0.1 µM. The CC50 at 3 days in data set [2] is below 5 µM.

Take `CCOc1nc(NCc2ccc(S(N)(=O)=O)cc2)nc2ccc(-c3ccc(C(=O)NC4(C#N)CC4)cc3)nc12` [Example 143, 4-{[4-Ethoxy-6-(4-(N-(1-cyano-1-cyclopropyl)-carbamoyl)phenyl)-pyrido[3,2-d]pyrimidin-2-ylamino]-methyl}-benzenesulfonamide]: the EC50 in data set [1] was below 0.1 µM. For the same compound, the CC50 at 3 days in data set [2] was in the range of 5 to 25 µM.

For `CCOc1nc(NCc2ccc(S(N)(=O)=O)cc2)nc2ccc(-c3ccc(C(=O)NC4CC4)cc3)nc12` [Example 144, 4-{[4-Ethoxy-6-(4-(N-cyclopropylcarbamoyl)phenyl)-pyrido[3,2-d]pyrimidin-2-ylamino]-methyl}-benzenesulfonamide], the EC50 in data set [1] was below 0.1 µM. This compound also came in with a CC50 at 3 days in data set [2] of 5 to 25 µM.

Turning to `CCOc1nc(NCc2ccc(S(N)(=O)=O)cc2)nc2ccc(-c3ccc(F)c(S(N)(=O)=O)c3)nc12` [Example 145, 5-[4-Ethoxy-2-(4-sulfamoyl-benzylamino)-pyrido[3,2-d]pyrimidin-6-yl]-2-fluoro-benzenesulfonamide], the EC50 in data set [1] was below 0.1 µM. Moreover, the 50% cytotoxic concentration (CC50) at 3 days in data set [2] fell in the range of 5 to 25 µM.

`CCOc1nc(NCc2ccc(S(N)(=O)=O)cc2)nc2ccc(-c3ccc(NC(=O)[C@H](C)N)cc3)nc12` [Example 146, 2-Amino-N-{4-[4-ethoxy-2-(4-sulfamoyl-benzylamino)-pyrido[3,2-d]pyrimidin-6-yl]-phenyl}-propionamide]: the EC50 in data set [1] is below 0.1 µM. Moreover, in data set [2], the CC50 at 3 days lay in the range of 5 to 25 µM.

In data set [1], `CCOc1nc(NCc2ccc(S(N)(=O)=O)cc2)nc2ccc(-c3ccc(NC(=O)[C@@H](N)[C@@H](C)O)cc3)nc12` [Example 147, 2-Amino-N-{4-[4-ethoxy-2-(4-sulfamoyl-benzylamino)-pyrido[3,2-d]pyrimidin-6-yl]-phenyl}-3-hydroxy-butyramide] came in with an EC50 below 0.1 µM. Also, in data set [2], the CC50 at 3 days was below 5 µM.

Compound `CS(=O)(=O)CCNc1nc(NCc2ccc(S(N)(=O)=O)cc2)nc2ccc(-c3cnc(N)s3)nc12` [Example 148, 4-{[4-(2-Methanesulfonylethyl)-amino-6-(2-aminothiazole-5-yl)-pyrido[3,2-d]pyrimidin-2-ylamino]-methyl}-benzenesulfonamide] returned an EC50 in data set [1] below 0.1 µM. For the same compound, the CC50 at 3 days in data set [2] was 5 to 25 µM.

In data set [1], `NS(=O)(=O)c1ccc(CNc2nc(NCC(F)(F)F)c3nc(-c4ccc(F)cc4)ccc3n2)cc1` [Example 149, 4-{[4-(2,2,2-Trifluoroethyl)-amino-6-(4-fluorophenyl)-pyrido[3,2-d]pyrimidin-2-ylamino]-methyl}-benzenesulfonamide] displayed a concentration for a half-maximal effect (EC50) below 0.1 µM. This compound registered a CC50 at 3 days in data set [2] of 5 to 25 µM.

Take `CS(=O)(=O)CCNc1nc(NCc2ccc(S(N)(=O)=O)cc2)nc2ccc(-c3ccc(F)c(Cl)c3)nc12` [Example 150, 4-{[4-(2-Methanesulfonylethyl)-amino-6-(3-chloro-4-fluorophenyl)-pyrido[3,2-d]pyrimidin-2-ylamino]-methyl}-benzenesulfonamide]: in data set [1], the EC50 was below 0.1 µM. The compound further registered a CC50 at 3 days in data set [2] below 5 µM.

Take `NS(=O)(=O)c1ccc(CNc2nc(NCC(F)F)c3nc(-c4ccc(F)cc4)ccc3n2)cc1` [Example 151, 4-{[4-(2,2-Difluoroethyl)-amino-6-(4-fluorophenyl)-pyrido[3,2-d]pyrimidin-2-ylamino]-methyl}-benzenesulfonamide]: the EC50 in data set [1] is below 0.1 µM. In data set [2], this compound displayed a CC50 at 3 days below 5 µM.

As to `CN(CCS(C)(=O)=O)c1nc(NCc2ccc(S(N)(=O)=O)cc2)nc2ccc(-c3ccc(F)cc3)nc12` [Example 152, 4-{[4-(N-(2-Methanesulfonylethyl)-N-methyl)-amino-6-(4-fluorophenyl)-pyrido[3,2-d]pyrimidin-2-ylamino]-methyl}-benzenesulfonamide], in data set [1], the EC50 is below 0.1 µM. Besides, the CC50 at 3 days in data set [2] was below 5 µM.

`CS(=O)(=O)CCNc1nc(NCc2ccc(S(N)(=O)=O)cc2)nc2ccc(-c3ccc(F)cc3)nc12` [Example 153, 4-{[4-(2-Methanesulfonylethyl)-amino-6-(4-fluorophenyl)-pyrido[3,2-d]pyrimidin-2-ylamino]-methyl}-benzenesulfonamide] had an EC50 in data set [1] below 0.1 µM. In data set [2], this compound displayed a 50% cytotoxic concentration (CC50) at 3 days below 5 µM.

On to `CC(C)(N)C(=O)Nc1ccc(-c2ccc3nc(NCc4ccc(S(N)(=O)=O)cc4)nc(NCCS(C)(=O)=O)c3n2)cc1` [Example 154, 4-{[4-(2-Methanesulfonylethyl)-amino-6-(4-((2-amino-2-propyl)-carboxamido)-phenyl)-pyrido[3,2-d]pyrimidin-2-ylamino]-methyl}-benzenesulfonamide], for which the EC50 in data set [1] is 0.1 to 0.25 µM. The same compound registered a CC50 at 3 days in data set [2] above 25 µM.

On to `CS(=O)(=O)CCNc1nc(NCc2ccc(S(N)(=O)=O)cc2)nc2ccc(-c3ccc(NC(=O)C4(O)CC4)cc3)nc12` [Example 155, 4-{[4-(2-Methanesulfonylethyl)-amino-6-(4-((1-hydroxy-1-cyclopropyl)-carboxamido)-phenyl)-pyrido[3,2-d]pyrimidin-2-ylamino]-methyl}-benzenesulfonamide], for which, in data set [1], the EC50 fell in the range of 0.1 to 0.25 µM. For the same compound, in data set [2], the CC50 at 3 days is above 25 µM.

In the case of `N[C@@H](CO)C(=O)Nc1ccc(-c2ccc3nc(NCc4ccc(S(N)(=O)=O)cc4)nc(NCC(F)(F)F)c3n2)cc1` [Example 156, (S)-4-{[4-(2,2,2-Trifluoroethyl)-amino-6-(4-((2-hydroxy-1-aminoethyl)-carboxamido)-phenyl)-pyrido[3,2-d]pyrimidin-2-ylamino]-methyl}-benzenesulfonamide], in data set [1], the EC50 was below 0.1 µM. Also, in data set [2], the CC50 at 3 days was below 5 µM.

With `CS(=O)(=O)N(CCO)c1cccc(-c2ccc3nc(NCc4ccc(S(N)(=O)=O)cc4)nc(NCC(F)F)c3n2)c1` [Example 157, 4-{[4-(2,2-Difluoroethyl)-amino-6-(4-(3-(N-2-hydroxyethyl)methane-sulfonamido)-phenyl)-pyrido[3,2-d]pyrimidin-2-ylamino]-methyl}-benzenesulfonamide], the EC50 in data set [1] is below 0.1 µM. In addition, the CC50 at 3 days in data set [2] was above 25 µM.

On to `NS(=O)(=O)c1ccc(CNc2nc(NCC(F)(F)F)c3nc(-c4ccc(C(=O)NC5CC5)cc4)ccc3n2)cc1` [Example 158, 4-{[4-(2,2,2-Trifluoroethyl)-amino-6-(4-(N-cyclopropylcarbamoyl)-phenyl)-pyrido[3,2-d]pyrimidin-2-ylamino]-methyl}-benzenesulfonamide], for which the EC50 in data set [1] is below 0.1 µM. The CC50 at 3 days in data set [2] was in the range of 5 to 25 µM.

In turn, `N#CC1(NC(=O)c2ccc(-c3ccc4nc(NCc5ccc(S(N)(=O)=O)cc5)nc(NCC(F)(F)F)c4n3)cc2)CC1` [Example 159, 4-{[4-(2,2,2-Trifluoroethyl)-amino-6-(4-(N-(1-cyano-1-cyclopropyl)-carbamoyl)phenyl)-pyrido[3,2-d]pyrimidin-2-ylamino]-methyl}-benzenesulfonamide] yielded an EC50 in data set [1] below 0.1 µM. Also, in data set [2], the half-maximal cytotoxic concentration (CC50) at 3 days was above 25 µM.

As for `NC(=O)c1ccc(-c2ccc3nc(NCc4ccc(S(N)(=O)=O)cc4)nc(NCC(F)(F)F)c3n2)cc1` [Example 160], the EC50 in data set [1] is below 0.1 µM. In data set [2], this compound gave a CC50 at 3 days of 5 to 25 µM.
